The nature of data set [1]: Cytotoxicity against human 9KB cells. The data set is classed as functional. The conditions noted are these: read-out: ED50 (the source's name).
Data set [2] deals with Agrobacterium tumefaciens. Kind of data set: Antitumor activity against Agrobacterium tumefaciens-induced crown gall tumor in potato tubers by potato disk assay. In kind it is functional.
In data set [3] the test system is Artemia. Description: Toxicity in brine shrimp. In kind it is organism-based. The conditions noted are these: in vivo.
Data set [4] deals with P388. Kind of data set: Antileukemic activity against mouse P388 cells xenografted in mouse. In kind it is functional.

Converted amounts (≈) assume the structure as drawn. The source made the active and inactive calls. The rule behind the calls is not given here.

For orientation: LC50 means the concentration lethal to half of the exposed cells or organisms. A high value points to a less lethal substance. The term T/C denotes the ratio of treated to control.

Consider `COc1cc2ccc(=O)oc2cc1OC` [SCOPARONE], for which the EC50 in data set [1] was found to be 61 µg/mL (≈ 296 µM). Moreover, the inhibition result in data set [2] is “inactive”. The LC50 in data set [3] is on record as 349 ppm.

`C/C=C1/C(=O)O[C@@]23C=C[C@H]4[C@@H](C(=O)OC)[C@H](O)O[C@@H](O[C@H]12)[C@H]43` [ALLAMANDIN]: the EC50 in data set [1] was found to be 2.1 µg/mL (≈ 6.81 µM). The same compound gave a T/C in data set [4] of 145%. The “inhibition (INH)” value in data set [2] stood at 51%. In data set [3], this compound registered an LC50 of 21.3 ppm.

With `COc1cc2ccc(=O)oc2cc1O` [SCOPOLETIN], the EC50 in data set [1] was found to be 16 µg/mL (≈ 83.3 µM). The compound also returned a T/C in data set [4] of 133%. Also, the “inhibition (INH)” value in data set [2] worked out at 20%. The same compound displayed a 50% lethal concentration (LC50) in data set [3] of 55 ppm.

Regarding `COc1cc([C@H]2OC[C@H]3[C@@H]2CO[C@H]3c2ccc(O)c(OC)c2)ccc1O` [PINORESINOL], the EC50 in data set [1] was 100 µg/mL (≈ 279 µM). Besides, the inhibition entry in data set [2] was “inactive”. In addition, the LC50 in data set [3] is recorded as 377 ppm.

In the case of `C/C=C1/C(=O)O[C@]23C=C[C@@H]4C(C(=O)OC)=CO[C@H](O[C@@H]12)[C@@H]43` [PLUMERICIN], in data set [1], the EC50 is 2.6 µg/mL (≈ 8.96 µM). Also, the “inhibition (INH)” value in data set [2] is given as 44%. Also, the 50% lethal concentration (LC50) in data set [3] came out at 1.7 ppm.

As for `C/C=C1/C(=O)O[C@@]23C=C[C@H]4C[C@H](O)O[C@@H](O[C@H]12)[C@H]43` [ALLAMCIN], the inhibition result in data set [2] is “inactive”. Moreover, the median lethal concentration (LC50) in data set [3] is recorded as above 1000 ppm.

Regarding `C/C=C1\C(=O)O[C@]23C=C[C@@H]4C(C(=O)OC)=CO[C@H](O[C@@H]12)[C@@H]43` [ISOPLUMERICIN], in data set [1], the EC50 amounted to 2.7 µg/mL (≈ 9.3 µM). In addition, in data set [4], the T/C is 145%. The “inhibition (INH)” value in data set [2] amounted to 44%. The compound further came in with an LC50 in data set [3] of 1.7 ppm.
